Results taken from PubChem BioAssay (NCI).
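Grown in 96-well plates, cells were treated for 48 hours with each compound at five concentrations. Insufficient inhibition: endpoint recorded as highest concentration tested. Here, GI50 denotes the concentration required for 50% inhibition of growth. TGI marks complete inhibition of growth.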

Key:
Experiment in all cases: DTP human tumour cell line panel, 48 h
HCC-2998 colon = tested on: HCC-2998 colon
HCT-116 colon = tested on: HCT-116 colon
HCT-15 colon = tested on: HCT-15 colon
M19-MEL melanoma = tested on: M19-MEL melanoma
NCI-H226 lung = tested on: NCI-H226 lung
OVCAR-8 ovarian = tested on: OVCAR-8 ovarian
SK-OV-3 ovarian = tested on: SK-OV-3 ovarian
DMS 273 small cell lung = tested on: DMS 273 small cell lung
BT-549 breast = tested on: BT-549 breast
HS 578T breast = tested on: HS 578T breast

SMILES	TGI (HCC-2998 colon)	TGI (HCT-116 colon)	TGI (HCT-15 colon)	TGI (M19-MEL melanoma)	TGI (NCI-H226 lung)	TGI (OVCAR-8 ovarian)	TGI (SK-OV-3 ovarian)	TGI (DMS 273 small cell lung)	GI50 (HCC-2998 colon)	GI50 (HCT-116 colon)	GI50 (HCT-15 colon)	GI50 (M19-MEL melanoma)	GI50 (NCI-H226 lung)	GI50 (OVCAR-8 ovarian)	GI50 (SK-OV-3 ovarian)	GI50 (BT-549 breast)	TGI (BT-549 breast)	GI50 (HS 578T breast)	TGI (HS 578T breast)
CC(C(=O)C(C)O[Si](c1ccccc1)(c1ccccc1)C(C)(C)C)=P(c1ccccc1)(c1ccccc1)c1ccccc1 (stereo not drawn)	12.3 µM	10.6 µM	18.8 µM	11.4 µM	10.6 µM	14.2 µM	6.81 µM	–	–	–	–	–	–	–	–	–	–	–	–
O=C1CCC(=O)C(C(=O)CCC(=O)Nc2ccc(Cl)cc2)C1 (stereo not drawn)	> 100 µM	> 100 µM	> 100 µM	–	> 100 µM	> 100 µM	> 100 µM	> 100 µM	–	–	–	–	–	–	–	–	–	–	–
COC(=O)C([O][Ge]([CH3])([CH3])[CH3])c1ccccc1 (stereo not drawn)	> 100 µM	> 100 µM	> 100 µM	> 100 µM	> 100 µM	> 100 µM	> 100 µM	–	> 100 µM	> 100 µM	> 100 µM	> 100 µM	> 100 µM	> 100 µM	> 100 µM	–	–	–	–
COc1ccccc1NC(=O)NS(=O)(=O)c1ccccc1	> 100 µM	> 100 µM	–	> 100 µM	> 100 µM	> 100 µM	–	> 100 µM	–	–	–	–	–	–	–	–	–	–	–
O=C1/C(=C/c2ccc(Cl)cc2)COc2ccc(Br)cc21	> 100 µM	> 100 µM	–	> 100 µM	–	> 100 µM	> 100 µM	> 100 µM	–	–	–	–	–	–	–	–	–	–	–
CC1CC(=O)CC[C@@H]1OCc1ccccc1 (stereo partly drawn)	> 100 µM	> 100 µM	> 100 µM	> 100 µM	–	> 100 µM	> 100 µM	> 100 µM	–	–	–	–	–	–	–	–	–	–	–
Cc1nc(=O)n2c(c1C(=O)Nc1ccc(Cl)cc1)NCCC2	–	> 100 µM	> 100 µM	> 100 µM	> 100 µM	> 100 µM	> 100 µM	–	–	–	–	–	–	–	–	–	–	–	–
COc1cccc(C2N3CCCCC3[C@@H]3c4[nH]c5ccccc5c4CCN23)c1OC (stereo partly drawn)	–	31.1 µM	30.8 µM	29.4 µM	–	30.8 µM	31.4 µM	29.7 µM	–	–	–	–	–	–	–	–	–	–	–
Cc1cncc2cccc(S(=O)(=O)N3CCCNC[C@@H]3C)c12	> 100 µM	> 100 µM	> 100 µM	–	46.1 µM	> 100 µM	> 100 µM	–	> 88.9 µM	7.56 µM	16.3 µM	–	2 µM	38.9 µM	24 µM	4.04 µM	35.9 µM	1.51 µM	> 100 µM
Cc1cccc(Cc2cnc(NC(=O)/C=C/c3ccco3)s2)c1	> 100 µM	> 100 µM	> 100 µM	–	> 23.1 µM	> 100 µM	> 100 µM	–	0.135 µM	0.0425 µM	0.0427 µM	–	0.797 µM	0.0535 µM	0.0465 µM	0.174 µM	> 100 µM	0.0313 µM	> 100 µM
CCN(CC)CCn1nc2c3c(cccc3c1=O)-c1ccccc1-2	11 µM	> 50 µM	13.3 µM	–	2.58 µM	> 50 µM	> 50 µM	–	2 µM	1.78 µM	1.44 µM	–	1.18 µM	2.23 µM	2.13 µM	6.16 µM	15.1 µM	11.2 µM	> 50 µM
Nc1ccc(Sc2ccc3c4c2cccc4c(=O)n2c4ccccc4nc32)cc1	> 100 µM	26.7 µM	40 µM	–	11.3 µM	30.9 µM	37.2 µM	–	10.1 µM	5.05 µM	3.34 µM	–	2.43 µM	5.13 µM	5.63 µM	6.06 µM	56.3 µM	10.1 µM	> 100 µM
CO[C@H]1/C=C/C=C/C=C/C[C@H](OC(=O)[C@@H](C)NC(=O)C2CCCCC2)[C@H](C)[C@@H](O)/C(C)=C\CCC2=CC(=O)C=C(NC(=O)C1)C2=O	0.762 µM	0.738 µM	5.57 µM	–	0.797 µM	1.57 µM	1.83 µM	–	0.109 µM	0.0472 µM	0.336 µM	–	0.157 µM	0.194 µM	0.187 µM	0.172 µM	1.38 µM	0.119 µM	0.59 µM
N#CSc1cc(-c2nc3ccccc3o2)ccc1N	> 100 µM	> 100 µM	> 100 µM	–	37.8 µM	> 32.5 µM	> 100 µM	–	22.6 µM	26.5 µM	23.2 µM	–	5.23 µM	2.79 µM	76.5 µM	23.8 µM	> 60.9 µM	11.3 µM	63.6 µM
COc1ccc(C2C3=C(COC3=O)N(CCO)c3cc4c(cc32)CCC4)cc1OC (stereo not drawn)	> 16.3 µM	> 50 µM	> 50 µM	–	> 50 µM	> 50 µM	> 50 µM	–	0.945 µM	0.524 µM	1.65 µM	–	> 10.7 µM	1.74 µM	0.746 µM	3.42 µM	> 50 µM	0.454 µM	> 15 µM
CCN(CC)Cc1cc(Nc2c3ccc(Cl)cc3nc3c(C)cccc23)ccc1O	2.47 µM	2.21 µM	2.87 µM	–	3.51 µM	3.45 µM	3.33 µM	–	1.2 µM	0.982 µM	1.15 µM	–	1.71 µM	1.34 µM	1.78 µM	1.92 µM	3.51 µM	1.92 µM	4.57 µM
O=[P+](O)c1cc2c3ccccc3ccc2c2ccccc12	> 100 µM	> 100 µM	–	> 100 µM	94.2 µM	> 100 µM	> 100 µM	> 100 µM	–	–	–	–	–	–	–	–	–	–	–
COc1ccc(C(=O)C(CN(C)C)c2ccccc2)cc1 (stereo not drawn)	3.94 µM	1.95 µM	4.73 µM	–	8.59 µM	12.5 µM	77.2 µM	–	2.28 µM	0.707 µM	1.81 µM	–	2.67 µM	3.46 µM	27.7 µM	1.76 µM	4.56 µM	1.95 µM	6.17 µM
CCCCOc1nc2ccccc2cc1C1CNC(=O)c2ccccc2N1 (stereo not drawn)	21.5 µM	5.47 µM	11.3 µM	–	19.2 µM	15.7 µM	13.3 µM	–	3.68 µM	1.92 µM	2.3 µM	–	4.82 µM	3.64 µM	2.94 µM	4.17 µM	23.2 µM	2.63 µM	19 µM
CCc1cc(Nc2nccc(-c3c(-c4ccc(OC)c(C(=O)Nc5c(F)cccc5F)c4)nc4ccccn34)n2)c(OC)cc1N1CCC(N2CCN(S(C)(=O)=O)CC2)CC1	> 100 µM	> 100 µM	> 100 µM	–	> 100 µM	> 100 µM	> 100 µM	–	> 100 µM	88.8 µM	> 100 µM	–	> 69.3 µM	> 100 µM	> 100 µM	> 100 µM	> 100 µM	> 100 µM	> 100 µM
COc1cc2ccc(C(=O)O)cc2cc1OC	–	> 100 µM	> 100 µM	> 100 µM	> 100 µM	> 100 µM	> 100 µM	> 100 µM	–	–	–	–	–	–	–	–	–	–	–
C=C1C(=O)O[C@H]2[C@H]1CC/C(COC(=O)c1ccc(Br)cc1)=C\CC[C@@]1(C)O[C@@H]21	4.27 µM	1.58 µM	3.06 µM	–	4.57 µM	5 µM	28.1 µM	–	2.05 µM	0.415 µM	1.1 µM	–	2.06 µM	1.87 µM	14.8 µM	1.3 µM	3.01 µM	2.51 µM	7.64 µM
O=C(Nc1ccc(I)cc1F)c1cc(F)ccc1O	26.4 µM	1.46 µM	> 27.1 µM	–	5.66 µM	48.7 µM	2.59 µM	–	3.1 µM	0.352 µM	0.499 µM	–	0.985 µM	1.07 µM	0.465 µM	0.301 µM	1.05 µM	0.44 µM	5.29 µM
C/C(=C\COc1ccc2ccc(=O)oc2c1)CCC(=O)C(C)(C)O	38.4 µM	32.2 µM	51.1 µM	–	69.7 µM	76.3 µM	99.4 µM	–	–	–	–	–	–	–	–	–	74.9 µM	–	78.2 µM
NC(=O)COc1ccc(Br)cc1Br	–	> 100 µM	> 100 µM	> 100 µM	> 100 µM	> 100 µM	> 100 µM	> 100 µM	–	–	–	–	–	–	–	–	–	–	–
COc1cc2cc(Oc3ccc(NC(=O)Nc4cc(C(F)(F)F)cc(C(F)(F)F)c4)cc3)c(C)nc2cc1OCCN1CCCCC1	3.29 µM	3.24 µM	3.09 µM	–	3.96 µM	3.72 µM	3.9 µM	–	1.78 µM	1.75 µM	1.62 µM	–	1.7 µM	1.87 µM	2.04 µM	1.8 µM	3.41 µM	1.93 µM	4.67 µM
Clc1ccc2c(NCCNc3nc(Cl)nc4ccccc34)ccnc2c1	3.18 µM	0.531 µM	2.55 µM	–	3.53 µM	3.34 µM	3.35 µM	–	1.62 µM	0.218 µM	1.14 µM	–	1.82 µM	1.49 µM	1.82 µM	1.81 µM	3.72 µM	2.26 µM	4.96 µM
O=C1/C(=C/c2ccccc2)CN(C(=O)Oc2ccccc2)C/C1=C\c1ccccc1	–	28.7 µM	> 100 µM	> 100 µM	–	> 100 µM	–	> 100 µM	–	–	–	–	–	–	–	–	–	–	–
